In ChEMBL document CHEMBL1649432, “Chromosomal integration of the extended-spectrum beta-lactamase gene blaCTX-M-15 in Salmonella enterica serotype Concord isolates from internationally adopted children” (2009):
≈ marks a conversion by molar mass, not a printed value.

Columns and labels:
Format in all cases: functional, Salmonella enterica subsp. enterica serovar Concord
[1] = Antimicrobial activity against Salmonella enterica serotype concord expressing extended-spectrum beta-lactamase CTX-M-15 by disc diffusion method
[2] = Antimicrobial activity against Salmonella enterica serotype concord expressing extended-spectrum beta-lactamase SHV-12 by Etest
[3] = Antimicrobial activity against Salmonella enterica serotype concord expressing extended-spectrum beta-lactamase CTX-M-15 by Etest
[4] = Antimicrobial activity against Salmonella enterica serotype concord expressing extended-spectrum beta-lactamase SHV-12 by disc diffusion method

| SMILES | Activity [1] [µg/mL] | MIC [2] [µg/mL] | MIC [3] [µg/mL] | MIC ([1]; Salmonella enterica) [µg/mL] | MIC [4] [µg/mL] |
| --- | --- | --- | --- | --- | --- |
| O=C(O)c1cn(C2CC2)c2cc(N3CCNCC3)c(F)cc2c1=O [CIPROFLOXACIN] | 0.25 | – | – | – | – |
| CO/N=C(\C(=O)N[C@@H]1C(=O)N2C(C(=O)O)=C(CSc3nc(=O)c(O)nn3C)CS[C@H]12)c1csc(N)n1 [CEFTRIAXONE] | – | 64 (≈ 115 µM) | > 256 | – | – |
| CO/N=C(\C(=O)N[C@@H]1C(=O)N2C(C(=O)[O-])=C(C[N+]3(C)CCCC3)CS[C@H]12)c1csc(N)n1 [CEFEPIME] | – | – | – | > 256 | 8 (≈ 16.6 µM) |
| CC(C)(O/N=C(\C(=O)N[C@@H]1C(=O)N2C(C(=O)[O-])=C(C[n+]3ccccc3)CS[C@H]12)c1csc(N)n1)C(=O)O [CEFTAZIDIME] | – | > 256 | > 256 | – | – |
